# “Also recorded” adds a separate entry of the source.
# Columns and labels:
# [1] = tested on: prostate (P), seminal vesicle (SV), levator ani muscle (LA); assay: Hershberger assay in orchiectomized rats; type: in vivo, Wistar male rats; conditions: for androgenic effect (P and SVs): 10 mg/kg s.c. once a day
# Protocol: Fig. 5 Estimation of the androgenic and myotrophic activities of the indicated compounds obtained by the Hershberger Assay. Wistar male rats were orchiectomized (orchi) or sham-operated (intact) under ether anesthesia. After 14 days of endogenous hormonal decline, animals were randomly allocated to treatment and vehicle groups (n = 6). The numbers at the end of the abbreviations correspond to the dose in mg/kg body weight of the animal. Flutamide was given by gavage (10 mg/kg/day). […] Then the animals were treated once a day. The rats were sacrificed after completion of the 12-day treatment. Following removal, wet weights of the prostate (P), seminal vesicle (SV), levator ani muscle (LA) were determined. a Size and shape of P, SV and LA at the end of the treatment period. b, c, and d, influence of treatment with the compounds alone or together with the antiandrogen flutamide at the indicated doses on the weight of the organs (P, SV and LA) of the castrated animals. The mean wet weight is represented by the bars in the graphs. Values are means ± SEM; bars, SEM. *P ≤ 0.05, **P ≤ 0.01 vs. control
# The Hershberger assay was performed according to the guidelines of the rodent Hershberger assay. Male Wistar rats (140 g, 5–6 weeks) were orchiectomized (orchi) or sham-operated (intact) under ether anesthesia. After 14 days of endogenous hormonal decline, animals were randomly allocated to treatment and vehicle groups (n = 6); orchi group = orchi rats receiving sham injections; intact group = sham-operated rats receiving sham injections; treatment group = orchi rats receiving drugs injections by subcutaneous. The antiandrogen flutamide given by gavage (10 mg/kg/day). Drugs were dissolved in ethanol and diluted in corn oil. The animals were treated once a day. Rats were sacrificed after completion of the 12-day treatment. Following removal, the wet weights of the P, SV, and LA muscle were determined. The data of tissue weights are presented as mean ± SEM.
# [2] = tested on: MCF-7 cells; assay: Cell proliferation assay (CCK8), MCF-7; type: cell-based, human; conditions: for proliferation of MCF-7 cells: 1 nM-10 μM, 6 days, 10% PRF-CT with 1 nM E2
# Protocol: (§1) Fig. 2 Proliferative response of cancer cells to indicated compounds. a–c the effect of concentrations of different compounds on the growth of the cells. […] Cell growth was measured as described in the “Materials and methods”. The proliferation of cells is expressed as the ratio of the cells compared with the control wells (untreated cells). d, e Influence of different compounds on the cell cycle of MCF-7 cells. MCF-7 cells were cultured in 10% PRF-CT with E2 (1 nM) for 3 days before plating. Cells were seeded in six-well plates and, the next day, starved in PRF for 24 h. Cells were exposed to different compounds at a concentration of 100 nM for 72 h, and then subjected to cell-cycle analysis as described in “Materials and methods”. f MCF-7 cells on poly-L-lysine-coated glass coverslips were exposed to compounds (100 nM) in 10% PRF-CT with 1 nM E2 for 72 h. Control cells were treated with vehicle. DAPI stains DNA, and the secondary anti-mouse antibody to detect the antibody bound to Ki-67 is labeled with the cyanine dye Cy3. The cells were stained with DAPI (blue). Immunofluorescence staining of Ki-67 of cells was observed using fluorescence microscope. Red: Ki-67; blue: nucleus.Typical image is shown. Scale bars: 10 μm. Data represent a mean ± SEM of three independent experiments, each in triplicate; bars, SEM. *P ≤ 0.05 vs. control
# (§2) After 24 h, cells were exposed for 3–6 days to various concentrations of compounds (1 nM– 10 μM) or left untreated. The incubation time and the compounds concentrations were chosen based on previous studies[17],[32]–[34]. The effects of the various drugs on cell proliferation at the indicated concentrations (1 nM– 10 μM) were determined by using a CCK8 kit (Dojindo Laboratories, Kumamoto, Japan) according to the manufacturer’s protocol. The absorbance at 450 nm was measured by using a Versamax microplate reader (Thermo Varioskan Flash, USA). Cell growth is expressed as the ratio of the cells compared with the control wells (untreated cells).
# [3] = tested on: ZR-75-1 cells; assay: Cell proliferation assay (CCK8), ZR-75-1; type: cell-based, human; conditions: for proliferation of ZR-75-1 cells: 1 nM-10 μM, 6 days, 10% PRF-CT with 1 nM E2
# Protocol: as §1, §2
# [4] = tested on: MCF-7 cells; assay: Cell cycle analysis by flow cytometry; type: cell-based, human; conditions: 100 nM, 72 h
# Protocol: Fig. 2 Proliferative response of cancer cells to indicated compounds. a–c the effect of concentrations of different compounds on the growth of the cells. Cells were cultured in 10% PRF-CT with E2 1 nM (MCF-7 and ZR-75-1) or without E2 (MDA-MB-231) for 3 days before plating. Cells were seeded in 96-well plates and 24 h later they were exposed to different concentrations (1 nM– 10 μM) of compounds for 6 days (MCF-7 and ZR-75-1) or 3 days (MDA-MB-231). Cell growth was measured as described in the “Materials and methods”. The proliferation of cells is expressed as the ratio of the cells compared with the control wells (untreated cells). d, e Influence of different compounds on the cell cycle of MCF-7 cells. MCF-7 cells were cultured in 10% PRF-CT with E2 (1 nM) for 3 days before plating. Cells were seeded in six-well plates and, the next day, starved in PRF for 24 h. Cells were exposed to different compounds at a concentration of 100 nM for 72 h, and then subjected to cell-cycle analysis as described in “Materials and methods”. f MCF-7 cells on poly-L-lysine-coated glass coverslips were exposed to compounds (100 nM) in 10% PRF-CT with 1 nM E2 for 72 h. Control cells were treated with vehicle. DAPI stains DNA, and the secondary anti-mouse antibody to detect the antibody bound to Ki-67 is labeled with the cyanine dye Cy3. The cells were stained with DAPI (blue). Immunofluorescence staining of Ki-67 of cells was observed using fluorescence microscope. Red: Ki-67; blue: nucleus.Typical image is shown. Scale bars: 10 μm. Data represent a mean ± SEM of three independent experiments, each in triplicate; bars, SEM. *P ≤ 0.05 vs. control
# Cell cycle kinetics were studied by flow cytometry. MCF-7 cells were cultured in 10% PRF–CT with 1 nM E2 for 3 days prior to seeding on six-well plates (10^5 cells/well). Following seeding of cells, cells were serum starved for 24 h, and then treated with media containing 100 nM of the test compounds for 72 h. Cell-cycle analysis was performed as described by Ando[20].
# [5] = tested on: ER(+) breast cancer (luminal A tumors); design: method as in printed; conditions: daily topical application to the affected breast, within 40 days; earlier work of the authors, ref not given; cited from earlier work
# [6] = biological target: T1, Rat AR ligand-binding domains (His-GST-ARLBD) (Rattus norvegicus, UniProt P15207); assay: AR fluorescence polarization-based competitive hormone-binding assay (PolarScreen AR Competitor Assay, Red)
# T1 construct: purchased Invitrogen
# T1 sequence (P15207 651-882 limits assumed): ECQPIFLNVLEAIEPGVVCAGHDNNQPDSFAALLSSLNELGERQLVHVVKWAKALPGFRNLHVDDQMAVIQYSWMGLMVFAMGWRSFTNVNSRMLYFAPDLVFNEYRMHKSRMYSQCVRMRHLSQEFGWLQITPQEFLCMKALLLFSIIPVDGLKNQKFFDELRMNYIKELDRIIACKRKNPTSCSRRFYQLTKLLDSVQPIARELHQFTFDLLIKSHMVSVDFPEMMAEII
# From the text: Fig. 4 The affinity of indicated compounds to the AR and their regulation of AR transcriptional activity. a AR fluorescence polarization-based competitive hormone-binding assays. […] Curve fitting was done using GraphPad Prism software (version 7.00). […] ARE(3×)-regulated dual-luciferase activity in U2-OS cells under steroid-free conditions. Cells were transiently transfected with pcDNA3.1-AR and ARE3-luc2P (firefly luciferase reporter plasmids) and the internal normalization control pRL-TK (Renilla luciferase reporter plasmid). Six hours after transfection, cells were treated as indicated. Then they were assayed 48 h after transfection for dual-luciferase activity. […] Briefly, compounds were dissolved in DMSO and mixed at 2% (vol/vol) with AR Red Screening Buffer. The tested compounds were subsequently serially diluted in two-fold increments with AR Red Screening Buffer and mixed 1:1 (vol/vol) with a 2 × AR/Fluormone AL complex. Competition for binding AR between Fluormone AL and the tested compounds was allowed to come to equilibrium for 4 h and not more than 20 h at room temperature in the dark. Fluorescence polarization value (mP) was measured on a fluorescence polarization plate reader (Biotech cytation5). Each compound dose was performed in triplicate, relative error was calculated from the standard error of the mean (SEM), and curve fitting was performed using GraphPad Prism™ 7.0 software.
# [7] = tested on: AR protein in MCF-7 cells; assay: AR protein expression by western blot and immunofluorescence; type: cell-based, human; conditions: incubation 3 days
# Protocol: Fig. 3 Influence of indicated compounds on the expression of the AR. […] AR protein expression was analyzed by western blot as described in “Materials and methods”. b The densitometric evaluation of the bands is calculated by ImageJ. The numbers represent the densitometric value relative to untreated control. […] Typical image is shown. Scale bars: 10 μm
# Total cell proteins were obtained from 70% confluent cell cultures. Protein extracts of whole cells (50 μg) were denatured, separated by SDS–PAGE and transferred to polyvinylidene fluoride membranes. After blocking with 3% bovine serum albumin in Tris-buffered saline-Tween, membranes were probed overnight at 4 °C. […] After incubation with the appropriate secondary antibody, results were detected using ECL detection reagents. Immunoreactive bands were quantified by densitometry using ImageJ software.
# MCF-7 cells were seeded on 24-well plates (2 × 10^4 cells/well) with a poly-L-lysine-coated glass coverslip per well in 10% PRF–CT. […] Cells were visualized with a ×40 objective and a Qimaging digital camera coupled to an Olympus X71 fluorescence microscope using a red fluorescent protein filter.
# [8] = tested on: androgenic organs; design: method as in PMID 404132; conditions: doses of 3 and 10 mg/kg; cited from earlier work
# [9] = 100 nM compound with 100 nM OH-Flutamide
structure (smiles),measurement,setting,value
"CC(C)C(=O)Nc1ccc([N+](=O)[O-])c(C(F)(F)F)c1 [Flutamide, flutamide]",prevention of androgenic effects of the test compounds,"[1]; Flutamide by gavage 10 mg/kg/day, concomitant",All androgenic effects can be eliminated
"CC(C)(O)C(=O)Nc1ccc([N+](=O)[O-])c(C(F)(F)F)c1 [OH-Flutamide, hydroxyflutamide]","antiproliferative effect in presence of OH-Flutamide, MCF-7",[2]; [9],the antiproliferative effect of DHT is almost completely abolished
same,"antiproliferative effect in presence of OH-Flutamide, ZR-75-1",[3]; [9],the antiproliferative effect of DHT is almost completely abolished
"C[C@]12CCC(=O)C(O)=C1CC[C@@H]1[C@@H]2CC[C@]2(C)C(=O)CC[C@@H]12 [4-OHA, 4-hydroxyandrostenedione]",proliferation of MCF-7 cells,[2],some antiproliferative action
same,proliferation of ZR-75-1 cells,[3],no effect on the growth
same,"influence on the cell cycle (G1/G0 increase, S-phase decrease)",[4],apparently more effective than Exemestane and 17-HEXE
same,androgenic effect (P and SVs),"[1]; 12 days, castrated rats",no effect on P and SVs
same,androgenic effect (P and SVs),"[1]; 12 days, castrated rats, listed as Formestane",no effect on androgenic organs whatsoever
same,reduction of tumor size (regression),[5],more than 50%
C[C@@H]1CC2=CC(=O)CC[C@@H]2[C@H]2CC[C@@]3(C)[C@@H](CC[C@]3(C)O)[C@@H]21 [Mibolerone],IC50,[6],11.8 nM
same,proliferation of MCF-7 cells,[2],antiproliferative in two ER(+)/AR(+) cell lines at all concentrations
same,proliferation of ZR-75-1 cells,[3],antiproliferative in two ER(+)/AR(+) cell lines at all concentrations
same,"effect on P, SVs and LA compared with DHT","[1]; 0.5 mg/kg s.c. once a day, 12 days, castrated rats",more effective than DHT
C=C1C[C@@H]2[C@H](CC[C@]3(C)C(=O)CC[C@@H]23)[C@@]2(C)C=CC(=O)C=C12 [Exemestane],proliferation of MCF-7 cells,[2],less effective
same,proliferation of ZR-75-1 cells,[3],less effective
same,expression of the AR protein,[7],considerably more effective than Formestane
same,androgenic effect (P and SVs),"[1]; 12 days, castrated rats",slightly androgenic; also recorded: the same effect
same,androgenic activity,[8],slight androgenic activity

# Source: PMC6591174, “The beneficial androgenic action of steroidal aromatase inactivators in estrogen-dependent breast cancer after failure of nonsteroidal drugs” (Cell Death & Disease, 2019)
